Measured values as given in PubChem BioAssay AID256 (DTP/NCI, 2004).
Several values for one entry are separate records, joined by “and”; a condition that tells them apart may be missing. Equal entries are not always repeated. Inconclusive results and toxic doses are left out. Rule for the calls: active = survival T/C of 150% or more; inactive = T/C below 125% in these data.

System: CD2F1 mice, L1210 leukemia ip, survival T/C
Experiment: NCI In Vivo Anticancer Drug Screen. Data for tumor model L1210 Leukemia (intraperitoneal) in CD2F1 (CDF1) mice
Settings: higher = longer survival
Outline: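 Each value reflects a quotient of treated over vehicle control outcomes in mice with a transplanted tumor.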

[1] = endpoint: mean survival time, dose: 100.0 mg/kg/injection, schedule: Q01DX001 (ip), vehicle: carboxymethylcellulose (CMC)
[2] = endpoint: mean survival time, dose: 200.0 mg/kg/injection, schedule: Q01DX001 (ip), vehicle: carboxymethylcellulose (CMC)
[3] = endpoint: mean survival time, dose: 100.0 mg/kg/injection, schedule: Q04DX003 (ip), vehicle: saline with Tween-80
[4] = endpoint: mean survival time, dose: 200.0 mg/kg/injection, schedule: Q04DX003 (ip), vehicle: saline with Tween-80
[5] = endpoint: mean survival time, dose: 400.0 mg/kg/injection, schedule: Q04DX003 (ip), vehicle: saline with Tween-80
[6] = endpoint: mean survival time, dose: 100.0 mg/kg/injection, schedule: Q01DX009 (ip), vehicle: saline with Tween-80
[7] = endpoint: mean survival time, dose: 200.0 mg/kg/injection, schedule: Q01DX009 (ip), vehicle: saline with Tween-80
[8] = endpoint: mean survival time, dose: 400.0 mg/kg/injection, schedule: Q01DX009 (ip), vehicle: saline with Tween-80
[9] = endpoint: mean survival time, dose: 50.0 mg/kg/injection, schedule: Q04DX003 (ip), vehicle: saline with Tween-80
[10] = endpoint: mean survival time, dose: 100.0 mg/kg/injection, schedule: Q01DX001 (ip), vehicle: saline with Tween-80
[11] = endpoint: mean survival time, dose: 200.0 mg/kg/injection, schedule: Q01DX001 (ip), vehicle: saline with Tween-80
[12] = endpoint: mean survival time, dose: 400.0 mg/kg/injection, schedule: Q01DX001 (ip), vehicle: saline with Tween-80

Measured: T/C

Clc1cc(Cl)cc(-c2cc(Cl)cc(Cl)c2)c1
inactive: [1] 101 % of control | [2] 92 % of control | endpoint: mean survival time, dose: 400.0 mg/kg/injection, schedule: Q01DX001 (ip), vehicle: carboxymethylcellulose (CMC) 95 % of control

c1ccc2c(c1)NCCN2
inactive: endpoint: mean survival time, dose: 25.0 mg/kg/injection, schedule: Q01DX001 (ip), vehicle: saline + alcohol 100 % of control | endpoint: mean survival time, dose: 50.0 mg/kg/injection, schedule: Q01DX001 (ip), vehicle: saline + alcohol 100 % of control | endpoint: mean survival time, dose: 100.0 mg/kg/injection, schedule: Q01DX001 (ip), vehicle: saline + alcohol 106 % of control

CC(C)c1ccc(NC(=O)Nc2cccc3ccccc23)cc1
inactive: [3] 102 % of control | [4] 91 % of control | [5] 91 % of control

CC(=O)OCCC(C)Nc1ccnc2cc(Cl)ccc12 (configuration not stated)
inactive: endpoint: mean survival time, dose: 10.0 mg/kg/injection, schedule: Q01DX009 (ip), vehicle: saline with Tween-80 100 % of control | endpoint: mean survival time, dose: 20.0 mg/kg/injection, schedule: Q01DX009 (ip), vehicle: saline with Tween-80 102 % of control | endpoint: mean survival time, dose: 40.0 mg/kg/injection, schedule: Q01DX009 (ip), vehicle: saline with Tween-80 96 % of control | [3] 100 % of control

Cc1cc(Cl)c2nc(-c3ccccc3)ccc2c1
inactive: [6] 103 % of control | [7] 101 % of control | [8] 97 % of control

CC(=O)[CH-]C(C)=O.CC(=O)[CH-]C(C)=O.CC(N)CN.[Ni+2]
inactive: endpoint: mean survival time, dose: 50.0 mg/kg/injection, schedule: Q01DX009 (ip), vehicle: other 100 % of control

C[n+]1ccc(Cc2ccccc2)cc1
inactive: endpoint: mean survival time, dose: 12.5 mg/kg/injection, schedule: Q04DX002 (ip), vehicle: saline 104 % of control | endpoint: mean survival time, dose: 25.0 mg/kg/injection, schedule: Q04DX002 (ip), vehicle: saline 96 % of control | endpoint: mean survival time, dose: 50.0 mg/kg/injection, schedule: Q04DX002 (ip), vehicle: saline 102 % of control

O=[N+]([O-])O.[La]
inactive: endpoint: mean survival time, dose: 50.0 mg/kg/injection, schedule: Q01DX009 (ip), vehicle: saline with Tween-80 90 % of control | [6] 97 % of control | [3] 92 % of control | endpoint: mean survival time, dose: 100.0 mg/kg/injection, schedule: Q04DX003 (ip), vehicle: saline 97 % of control | [7] 92 % of control | [4] 93 % of control | endpoint: mean survival time, dose: 200.0 mg/kg/injection, schedule: Q04DX003 (ip), vehicle: saline 98 % of control

CC1=CCCN(CCc2c[nH]c3ccccc23)C1
inactive: [9] 97 % of control | [10] 90 % of control | [3] 101 % of control | [11] 90 % of control

O=C(O)/C=C(/Br)C(=O)O
inactive: endpoint: mean survival time, dose: 100.0 mg/kg/injection, schedule: Q01DX001 (ip), vehicle: saline 97 % of control | endpoint: mean survival time, dose: 200.0 mg/kg/injection, schedule: Q01DX001 (ip), vehicle: saline 108 % of control

COCCCNc1ccc([N+](=O)[O-])cn1
inactive: endpoint: mean survival time, dose: 50.0 mg/kg/injection, schedule: Q01DX001 (ip), vehicle: carboxymethylcellulose (CMC) 100 % of control | [1] 100 % of control | [2] 108 % of control

CC(C)(C)NSc1nc2ccccc2s1
inactive: [3] 96 % of control | [4] 96 % of control

NCCCCC(N)C(=O)O (configuration not stated)
inactive: endpoint: median survival time, dose: 3.13 mg/kg/injection, schedule: Q04DX002 (ip), vehicle: saline 100 % of control | endpoint: median survival time, dose: 6.25 mg/kg/injection, schedule: Q04DX002 (ip), vehicle: saline 94 % of control | endpoint: median survival time, dose: 25.0 mg/kg/injection, schedule: Q04DX002 (ip), vehicle: saline 105 % of control | endpoint: median survival time, dose: 50.0 mg/kg/injection, schedule: Q04DX002 (ip), vehicle: saline 117 % of control

CC(C)C(=NO)C(C)C
inactive: [6] 98 % of control | [3] 101 % of control | [7] 93 % of control | [4] 93 % of control | [5] 91 % of control

O=S1C2C3CC(C4C=CCC43)C2N1c1ccccc1 (configuration not stated)
inactive: [10] 92 % of control | [6] 97 % of control | [11] 95 % of control | [7] 97 % of control | [12] 90 % of control | [8] 94 % of control

CCCCCCCCCCCCCCN1CCCN(CCCCCCCCCCCCCC)CC1
inactive: [9] 93 % of control | [10] 94 % of control | [6] 96 % of control and 101 % of control | endpoint: mean survival time, dose: 100.0 mg/kg/injection, schedule: Q04DX002 (ip), vehicle: saline with Tween-80 96 % of control | [3] 93 % of control and 101 % of control | [11] 94 % of control | [7] 98 % of control and 104 % of control | endpoint: mean survival time, dose: 200.0 mg/kg/injection, schedule: Q04DX002 (ip), vehicle: saline with Tween-80 93 % of control and 97 % of control | [4] 98 % of control and 100 % of control | [12] 101 % of control | [8] 93 % of control and 95 % of control | endpoint: mean survival time, dose: 400.0 mg/kg/injection, schedule: Q04DX002 (ip), vehicle: saline with Tween-80 93 % of control and 96 % of control | [5] 98 % of control

CCOC(=O)/C(C#N)=C(\C)c1ccccc1
inactive: endpoint: mean survival time, dose: 37.5 mg/kg/injection, schedule: Q01DX009 (ip), vehicle: saline with Tween-80 95 % of control | endpoint: mean survival time, dose: 75.0 mg/kg/injection, schedule: Q01DX009 (ip), vehicle: saline with Tween-80 97 % of control

O=C1CCCCCCCCC1O (configuration not stated)
inactive: [3] 102 % of control | [4] 103 % of control | [5] 96 % of control

Cc1ccc(S(=O)(=O)NCC(Br)CBr)cc1 (configuration not stated)
inactive: [6] 93 % of control | [3] 100 % of control | [7] 93 % of control | [4] 98 % of control | [8] 96 % of control | [5] 100 % of control
